Source: PubChem BioAssay AID1963446 (Molecular Pharmacology Branch, DTP, NCI, 2024)
“And” between values parts separate entries of the source, which are not always exact repeats. Identical values can stand only once.

System: 993429-296-R-J1-PDC complex spheroid growth, percent test/control
Assay: Anticancer human tumor 993429-296-R-J1-PDC patient-derived uterine sarcoma cell line growth inhibition [Asc]
Conditions: for viability, T/C: stronger effect = lower value
How it was run: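 Tumor cells were grown as multicellular spheroids with stromal HUVEC and mesenchymal stem cells and treated singly or in combination. Concentrations fell in half-log steps from the clinical Cmax, or from 10 microM where none was known.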
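Also: spheroids exposed to compounds for seven days.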

C=C(F)C(=O)N1CCN(c2nc(OCC3CCCN3C)nc3c2CCN(c2cccc4cccc(Cl)c24)C3)CC1CC#N (configuration not stated) + Cc1c(S(C)(=O)=O)c(-c2cc(F)cc(N3CCN(c4ccc(NS(=O)(=O)c5ccc(NC(CCN6CCC(C(=O)OCCCP(=O)(O)O)CC6)CSc6ccccc6)c(S(=O)(=O)C(F)(F)F)c5)cc4)CC3)c2)c(-c2ccc(Cl)cc2)n1C(C)C
IC50 (curve of first compound, second compound 0.1 µM): 494 nM | IC50 (curve of first compound, second compound 0.316 µM): 460 nM | IC50 (curve of first compound, second compound 1 µM): 321 nM | IC50 (curve of first compound, second compound 3.16 µM): < 31.6 nM | IC50 (curve of first compound, second compound 10 µM): 553 nM | viability, T/C (second compound 0.1 µM, first compound 0.0316 µM): 57.1% | viability, T/C (second compound 0.1 µM, first compound 0.1 µM): 85% | viability, T/C (second compound 0.1 µM, first compound 0.316 µM): 69.2% | viability, T/C (second compound 0.1 µM, first compound 1 µM): 17.5% | viability, T/C (second compound 0.1 µM, first compound 3.16 µM): 0.55% | viability, T/C (second compound 0.1 µM, first compound 10 µM): 0.23% | viability, T/C (second compound 0.316 µM, first compound 0.0316 µM): 71.8% | viability, T/C (second compound 0.316 µM, first compound 0.1 µM): 77.1% | viability, T/C (second compound 0.316 µM, first compound 0.316 µM): 70.6% | viability, T/C (second compound 0.316 µM, first compound 1 µM): 7.35% | viability, T/C (second compound 0.316 µM, first compound 3.16 µM): 0.21% | viability, T/C (second compound 0.316 µM, first compound 10 µM): 0.19% | viability, T/C (second compound 1 µM, first compound 0.0316 µM): 49.5% | viability, T/C (second compound 1 µM, first compound 0.1 µM): 60.8% | viability, T/C (second compound 1 µM, first compound 0.316 µM): 50.5% | viability, T/C (second compound 1 µM, first compound 1 µM): 5.26% | viability, T/C (second compound 1 µM, first compound 3.16 µM): 0.3% | viability, T/C (second compound 1 µM, first compound 10 µM): 0.14% | viability, T/C (second compound 3.16 µM, first compound 0.0316 µM): 46.9% | viability, T/C (second compound 3.16 µM, first compound 0.1 µM): 49.6% | viability, T/C (second compound 3.16 µM, first compound 0.316 µM): 35.9% | viability, T/C (second compound 3.16 µM, first compound 1 µM): 7.98% | viability, T/C (second compound 3.16 µM, first compound 3.16 µM): 0.08% | viability, T/C (second compound 3.16 µM, first compound 10 µM): 0.17% | viability, T/C (second compound 10 µM, first compound 0.0316 µM): 78.9% | viability, T/C (second compound 10 µM, first compound 0.1 µM): 108% | viability, T/C (second compound 10 µM, first compound 0.316 µM): 87.3% | viability, T/C (second compound 10 µM, first compound 1 µM): 10.4% | viability, T/C (second compound 10 µM, first compound 3.16 µM): 0.43% | viability, T/C (second compound 10 µM, first compound 10 µM): 0.3%

COc1c(OCCCN2CCOCC2)ccc2c3n(c(=NC(=O)c4cnc(N)nc4)nc12)CCN3 + CCN1C(C(=O)NC23CCC(C(=O)O)(CC2)CC3)C(c2cccc(Cl)c2F)C2(C(=O)Nc3cc(Cl)ccc32)C12CCCCC2
IC50 (curve of first compound, second compound 0.03 µM): 24.5 nM | IC50 (curve of first compound, second compound 0.0949 µM): 26.1 nM | IC50 (curve of first compound, second compound 0.3 µM): 23.5 nM | IC50 (curve of first compound, second compound 0.949 µM): 29.1 nM | IC50 (curve of first compound, second compound 3 µM): 21.8 nM | viability, T/C (second compound 0.03 µM, first compound 0.00316 µM): 94.7% | viability, T/C (second compound 0.03 µM, first compound 0.01 µM): 84.8% | viability, T/C (second compound 0.03 µM, first compound 0.0316 µM): 40.2% | viability, T/C (second compound 0.03 µM, first compound 0.1 µM): 6.36% | viability, T/C (second compound 0.03 µM, first compound 0.316 µM): 4.17% | viability, T/C (second compound 0.03 µM, first compound 1 µM): 1.31% | viability, T/C (second compound 0.0949 µM, first compound 0.00316 µM): 82.9% | viability, T/C (second compound 0.0949 µM, first compound 0.01 µM): 86.2% | viability, T/C (second compound 0.0949 µM, first compound 0.0316 µM): 43% | viability, T/C (second compound 0.0949 µM, first compound 0.1 µM): 7.8% | viability, T/C (second compound 0.0949 µM, first compound 0.316 µM): 3.21% | viability, T/C (second compound 0.0949 µM, first compound 1 µM): 1.48% | viability, T/C (second compound 0.3 µM, first compound 0.00316 µM): 96.6% | viability, T/C (second compound 0.3 µM, first compound 0.01 µM): 73.5% | viability, T/C (second compound 0.3 µM, first compound 0.0316 µM): 44.7% | viability, T/C (second compound 0.3 µM, first compound 0.1 µM): 8.77% | viability, T/C (second compound 0.3 µM, first compound 0.316 µM): 3.89% | viability, T/C (second compound 0.3 µM, first compound 1 µM): 1.15% | viability, T/C (second compound 0.949 µM, first compound 0.00316 µM): 78.4% | viability, T/C (second compound 0.949 µM, first compound 0.01 µM): 89.8% | viability, T/C (second compound 0.949 µM, first compound 0.0316 µM): 47.4% | viability, T/C (second compound 0.949 µM, first compound 0.1 µM): 7.2% | viability, T/C (second compound 0.949 µM, first compound 0.316 µM): 4.24% | viability, T/C (second compound 0.949 µM, first compound 1 µM): 1.63% | viability, T/C (second compound 3 µM, first compound 0.00316 µM): 81.4% | viability, T/C (second compound 3 µM, first compound 0.01 µM): 70% | viability, T/C (second compound 3 µM, first compound 0.0316 µM): 41% | viability, T/C (second compound 3 µM, first compound 0.1 µM): 7.7% | viability, T/C (second compound 3 µM, first compound 0.316 µM): 3.98% | viability, T/C (second compound 3 µM, first compound 1 µM): 1.49%

Cn1ncnc1[C@H]1c2n[nH]c(=O)c3cc(F)cc(c23)N[C@@H]1c1ccc(F)cc1
viability, T/C (compound 0.000316 µM): 92.8% and 98.9% and 94.3% | viability, T/C (compound 0.001 µM): 93.2% and 97.5% and 95.5% | viability, T/C (compound 0.00316 µM): 83.8% and 99.4% and 81.2% | viability, T/C (compound 0.01 µM): 74.3% and 92% and 84.6% | viability, T/C (compound 0.0316 µM): 62.5% and 70.2% and 57.7% | viability, T/C (compound 0.1 µM): 35.8% and 69.9% and 42% | IC50 (curve of compound): 52.4 nM and > 100 nM and 58.6 nM
